Assay results: the CheMixHub viscosity set

Assay: xn = mol fraction of the nth substance listed

CCN(CC)c1ccccc1 + CCCCOCCO
viscosity [mPa·s], 101.3 kPa
Conditions | x2 = 0.0979 | x2 = 0.2008 | x2 = 0.289 | x2 = 0.3526 | x2 = 0.4964 | x2 = 0.5968 | x2 = 0.7021 | x2 = 0.794 | x2 = 0.8979
298 K | 1.87 | 1.887 | 1.923 | 1.968 | 2.102 | 2.198 | 2.343 | 2.461 | 2.631
303 K | 1.679 | 1.686 | 1.711 | 1.756 | 1.853 | 1.942 | 2.067 | 2.175 | 2.305
308 K | 1.511 | 1.516 | 1.538 | 1.572 | 1.655 | 1.731 | 1.844 | 1.927 | 2.048
313 K | 1.369 | 1.371 | 1.393 | 1.429 | 1.487 | 1.552 | 1.65 | 1.725 | 1.824
318 K | 1.248 | 1.249 | 1.262 | 1.286 | 1.365 | 1.402 | 1.481 | 1.544 | 1.631

CCCCCCCCCCCC(=O)OCC + CCCCCCO
viscosity [mPa·s], 101.33 kPa
Conditions | 293.15 K | 298.15 K | 303.15 K | 308.15 K | 313.15 K | 318.15 K | 323.15 K
x2 = 0.1 | 3.266 | 2.909 | 2.623 | 2.367 | 2.136 | 1.965 | 1.778
x2 = 0.2 | 3.214 | 2.867 | 2.596 | 2.334 | 2.09 | 1.918 | 1.731
x2 = 0.2999 | 3.216 | 2.872 | 2.575 | 2.309 | 2.095 | 1.896 | 1.724
x2 = 0.4 | 3.215 | 2.868 | 2.57 | 2.296 | 2.067 | 1.883 | 1.695
x2 = 0.4999 | – | 2.906 | 2.597 | 2.316 | 2.073 | 1.896 | 1.7
x2 = 0.5 | 3.25 | – | – | – | – | – | –
x2 = 0.5999 | 3.374 | – | – | – | – | – | –
x2 = 0.6 | – | 3.01 | 2.673 | 2.379 | 2.13 | 1.942 | 1.725
x2 = 0.7 | 3.486 | 3.101 | 2.771 | 2.459 | 2.186 | 1.965 | 1.761
x2 = 0.8 | 3.852 | 3.366 | 2.979 | 2.621 | 2.316 | 2.079 | 1.848
x2 = 0.8999 | 4.374 | – | – | – | – | – | –
x2 = 0.9 | – | 3.769 | 3.316 | 2.902 | 2.568 | 2.261 | 1.972

Clc1ccc(Cl)c(Cl)c1 + Nc1ccccc1Cl
viscosity [mPa·s], 101 kPa
Conditions | x2 = 0.1164 | x2 = 0.2287 | x2 = 0.337 | x2 = 0.4415 | x2 = 0.5425 | x2 = 0.6402 | x2 = 0.7346 | x2 = 0.8259 | x2 = 0.9143
303.15 K | 1.936 | 2.118 | 2.307 | 2.504 | 2.708 | 2.919 | 3.137 | 3.361 | 3.59
308.15 K | 1.773 | 1.935 | 2.103 | 2.277 | 2.456 | 2.639 | 2.827 | 3.018 | 3.214
313.15 K | 1.614 | 1.761 | 1.912 | 2.067 | 2.226 | 2.388 | 2.553 | 2.72 | 2.889
318.15 K | 1.46 | 1.595 | 1.734 | 1.875 | 2.019 | 2.165 | 2.313 | 2.462 | 2.612

ClCCCCl + CCC(C)O
viscosity [mPa·s], 101 kPa
Conditions | x1 = 0.1002 | x1 = 0.2005 | x1 = 0.3002 | x1 = 0.4005 | x1 = 0.4986 | x1 = 0.6027 | x1 = 0.6951 | x1 = 0.8051 | x1 = 0.9113
298.15 K | 2.23 | 1.683 | 1.346 | 1.134 | 1.031 | 0.9587 | 0.9141 | 0.894 | 0.8997
313.15 K | 1.369 | 1.103 | 0.9402 | 0.8403 | 0.7841 | 0.7468 | 0.7254 | 0.7214 | 0.7371

CCN(CC)c1ccccc1 + CCC(=O)O
Conditions | viscosity [mPa·s]
323.15 K, 101 kPa, x2 = 0.5177 | 1.865

CCOC(=O)CC(=O)OCC + CC(=O)c1ccccc1
viscosity [mPa·s], 101 kPa
Conditions | x1 = 0.0812 | x1 = 0.1401 | x1 = 0.2516 | x1 = 0.3486 | x1 = 0.4322 | x1 = 0.5248 | x1 = 0.6335 | x1 = 0.7384 | x1 = 0.8256 | x1 = 0.9278
303.15 K | 1.564 | 1.587 | 1.626 | 1.655 | 1.677 | 1.697 | 1.714 | 1.727 | 1.732 | 1.738
308.15 K | 1.412 | 1.43 | 1.461 | 1.487 | 1.506 | 1.524 | 1.54 | 1.55 | 1.559 | 1.567
313.15 K | 1.315 | 1.334 | 1.363 | 1.384 | 1.4 | 1.416 | 1.43 | 1.44 | 1.446 | 1.454

O=[N+]([O-])[O-].O=[N+]([O-])[O-].O=[N+]([O-])[O-].[Y+3] + O
viscosity [mPa·s], 101.3 kPa
Conditions | x1 = 0.008908 | x1 = 0.01764 | x1 = 0.02626 | x1 = 0.03447 | x1 = 0.05042 | x1 = 0.06636 | x1 = 0.08199
293.15 K | 1.335 | 1.809 | 2.474 | 3.484 | 7.18 | 15.24 | 33.5
298.15 K | 1.191 | 1.61 | 2.197 | 3.056 | 6.164 | 12.8 | 26.72
308.15 K | 0.9655 | 1.305 | 1.765 | 2.405 | 4.677 | 8.991 | 18.14
